The values below come from patent EP3628672A1 (priority 2018, dated 2020).

The target in one experiment is T1, LasB (Pseudomonas aeruginosa, UniProt P14756).
T1 construct: uses as source of enzyme dialysed supernatant from P. aeruginosa PAO1; endogenous in cells; host or cells: P. aeruginosa PAO1 culture supernatant, filtered and dialysed
Briefly: Elastin assay to determine % inhibition (Elastin Congo-Red, dialysed culture supernatant). The experiment is classed as biochemical, P. aeruginosa PAO1. Conditions: read-out: Elastin hydrolysis % inhibition @ 50 / 25 µM inhibitor concentration. Put shortly: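 Enzyme source was dialysed PAO1 culture supernatant (50 mM Tris-HCl pH 7.4, 2.5 mM CaCl2), mixed with Elastin Congo-Red and 0.01% Triton X-100. Compound was routinely 50 to 1.56 µM, incubated overnight at 37 °C with shaking. Dye release at OD495 gave % inhibition relative to DMSO and no-enzyme controls.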

In experiment [1] the target is T2, purified LasB protein from P. aeruginosa (Pseudomonas aeruginosa, UniProt P14756).
T2 construct: purchased Merck or Charles River Laboratories
Put plainly: Fluorometric assay to determine Ki (Abz-Ala-Gly-Leu-Ala-p-Nitro-Benzyl-Amide substrate). The experiment is classed as biochemical. Put shortly:
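Purified P. aeruginosa LasB (10–140 ng/ml) with 250 µM Abz-Ala-Gly-Leu-Ala-p-nitrobenzylamide in 50 mM Tris-HCl pH 7.4, 2.5 mM CaCl2, 0.01% Triton X100, 37 °C; hydrolysis fluorescence (Ex 340/Em 415 nm) followed over 30 min, inhibitor 0.0016–200 µM. Ki = IC50/(1+[S]/Km), Km 214 µM.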

Where two headings read alike, the source gives them in different places.

T2 sequence (P14756 198-498): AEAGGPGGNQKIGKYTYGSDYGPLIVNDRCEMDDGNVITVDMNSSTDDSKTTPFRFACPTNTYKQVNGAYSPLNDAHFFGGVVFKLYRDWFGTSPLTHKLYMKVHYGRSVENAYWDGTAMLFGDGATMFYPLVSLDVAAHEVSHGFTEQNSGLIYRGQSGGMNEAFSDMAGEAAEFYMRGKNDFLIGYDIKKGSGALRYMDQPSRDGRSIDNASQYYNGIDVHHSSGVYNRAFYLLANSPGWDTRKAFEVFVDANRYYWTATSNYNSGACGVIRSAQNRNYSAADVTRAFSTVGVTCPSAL
T1 sequence (P14756 198-498): as above

On to `COc1cc(OCCN2CCN(C(C)=O)CC2)ccc1-c1csc(CNC(=O)C2(CC(=O)O)Cc3ccccc3C2)n1` [Example 88], for which the inhibition at 25 µM on LasB was greater than 75%. Further, the Ki in experiment [1] was less than 50 nM.
For `COc1cc(OCC[N+]2(C)CCOCC2)ccc1-c1csc(CNC(=O)C2(CC(=O)[O-])Cc3cc(F)c(F)cc3C2)n1` [Example 68, 2-[5,6-difluoro-2-[[4-[2-methoxy-4-[2-(4-methylmorpholin-4-ium-4-yl)ethoxy]phenyl]thiazol-2-yl]methylcarbamoyl]indan-2-yl]acetate], the inhibition at 25 µM on LasB was in the range of 60 to 75%. The compound further registered a Ki in experiment [1] of 50 to 200 nM.
Taken in the same sequence, the figures for `C[N+]1(CCCOc2ccc(-c3csc(CNC(=O)C4(CC(=O)[O-])Cc5ccccc5C4)n3)cc2)CCOCC1` [Example 56, 2-[2-[[4-[4-[3-(4-methylmorpholin-4-ium-4-yl)propoxy]phenyl]thiazol-2-yl]methylcarbarmoyl]indan-2-yl]acetate] were 60 to 75% and 50 to 200 nM.
On to `C[N+]1(CCCOc2ccc(-c3csc(CNC(=O)C4(CC(=O)[O-])Cc5ccccc5C4)n3)cc2S(C)(=O)=O)CCOCC1` [Example 61, 2-[2-[[4-[4-[3-(4-methylmorpholin-4-ium-4-yl)propoxy]-3-methylsulfonyl-phenyl]thiazol-2-yl]methylcarbamoyl]indan-2-yl]acetate], for which the inhibition at 25 µM at LasB fell in the range of 60 to 75%. Further, the inhibitory constant (Ki) in experiment [1] was 50 to 200 nM.
As to `C[n+]1ccc(COc2ccc(-c3csc(CNC(=O)C4(CC(=O)[O-])Cc5ccccc5C4)n3)cc2)cc1` [Example 51, 2-[2-[[4-[4-[(1-methylpyridin-1-ium-4-yl)methoxy]phenyl]thiazol-2-yl]methylcarbamoyl]indan-2-yl]acetate], at LasB, the inhibition at 25 µM is 60 to 75%. In experiment [1], this compound showed a Ki of 50 to 200 nM.
`O=C(O)CC1(C(=O)NCc2ncc(-c3ccccc3)s2)Cc2ccccc2C1` [Example 2, 2-[2-[(5-phenylthiazol-2-yl)methylcarbamoyl]indan-2-yl]acetic acid]: at LasB, the inhibition at 25 µM fell in the range of 10 to 60%. Further, the Ki in experiment [1] lay in the range of 200 to 10000 nM.
With `COC1CCN(CCCn2cc(-c3csc(CNC(=O)C4(CC(=O)O)Cc5ccccc5C4)n3)cn2)CC1` [Example 110, 2-[2-[[4-[1-[3-(4-methoxy-1-piperidyl)propyl]pyrazol-4-yl]thiazol-2-yl]methylcarbamoyl]indan-2-yl]acetic acid], the inhibition at 25 µM on LasB is 60 to 75%. The same compound displayed a Ki in experiment [1] of 50 to 200 nM.
For the compound `Cc1nn(C)cc1-c1csc(CNC(=O)C2(CC(=O)O)Cc3ccccc3C2)n1` [Example 93, 2-[2-[[4-(1,3-dimethylpyrazol-4-yl)thiazol-2-yl]methylcarbamoyl]indan-2-yl]acetic acid], on LasB, the inhibition at 25 µM lay within 60 to 75%. The Ki in experiment [1] fell in the range of 50 to 200 nM.
As for `COc1cc(OCCc2nccn2C)ccc1-c1csc(CNC(=O)C2(CC(=O)O)Cc3ccccc3C2)n1` [Example 85, 2-[2-[[4-[2-methoxy-4-[2-(1-methylimidazol-2-yl)ethoxy]phenyl]thiazol-2-yl]methylcarbamoyl]indan-2-yl]acetic acid], at LasB, the inhibition at 25 µM lay in the range of 60 to 75%. Moreover, the Ki in experiment [1] was 50 to 200 nM.
For `CN1CCN(C(=O)COc2cccc(-c3csc(CNC(=O)C4(CC(=O)O)Cc5ccccc5C4)n3)c2)CC1` [Example 54, 2-[2-[[4-[3-[2-(4-methylpiperazin-1-yl)-2-oxo-ethoxy]phenyl]thiazol-2-yl]methylcarbamoyl]indan-2-yl]acetic acid], the inhibition at 25 µM on LasB is 60 to 75%. The Ki in experiment [1] (Ki calculated from IC50, [S] = 250 µM, Km = 214 µM, 37°C, pH 7.4) is 200 to 10000 nM.
As to `COc1cc(OCCN2CCOCC2)ccc1-c1csc(CNC(=O)C2(CC(=O)O)Cc3ccccc3C2)n1` [Example 76, 2-[2-[[4-[2-methoxy-4-(2-morpholinoethoxy)phenyl]thiazol-2-yl]methylcarbamoyl]indan-2-yl]acetic acid], the inhibition at 25 µM at LasB was greater than 75%. Moreover, the Ki in experiment [1] was less than 50 nM.
`CN(C)C1CN(C(=O)c2ccc(-c3csc(CNC(=O)C4(CC(=O)O)Cc5ccccc5C4)n3)cc2)C1` [Example 20, 2-[2-[[4-[4-[3-(dimethylamino)azetidine-1-carbonyl]phenyl]thiazol-2-yl]methylcarbamoyl]indan-2-yl]acetic acid]: the inhibition at 25 µM on LasB lay within 60 to 75%. In experiment [1], this compound had a Ki of 200 to 10000 nM.
Take `COc1ccc(-c2csc(CNC(=O)C3(CC(=O)[O-])Cc4ccccc4C3)n2)cc1C(=O)N1CCC([N+](C)(C)C)CC1` [Example 138, 2-[2-[[4-[4-methoxy-3-[4-(trimethylammonio)piperidine-1-carbonyl]phenyl]thiazol-2-yl]methylcarbamoyl]indan-2-yl]acetate]: the inhibition at 25 µM at LasB was 10 to 60%. Further, in experiment [1], the Ki is 200 to 10000 nM.
The like results for `COc1cc(OCCC[N+]2(C)CCCC2)ccc1-c1csc(CNC(=O)C2(CC(=O)[O-])Cc3cc(F)c(F)cc3C2)n1` [Example 73, 2-[5,6-difluoro-2-[[4-[2-methoxy-4-[3-(1-methylpyrrolidin-1-ium-1-yl)propoxy]phenyl]thiazol-2-yl]methylcarbamoyl]indan-2-yl)acetate] were, in that order, 60 to 75% and 50 to 200 nM.
Turning to `Cc1c(-c2csc(CNC(=O)C3(CC(=O)O)Cc4ccccc4C3)n2)cnn1C` [Example 91, 2-[2-[[4-(1,5-dimethylpyrazol-4-yl)thiazol-2-yl]methylcarbamoyl]indan-2-yl]acetic acid], the inhibition at 25 µM at LasB is greater than 75%. The compound further came in with a Ki in experiment [1] of 50 to 200 nM.
In the case of `O=C(O)CC1(C(=O)NCc2nc(-c3ccccc3)cs2)Cc2cc(F)c(F)cc2C1` [Example 3, 2-[5,6-difluoro-2-[(4-phenylthiazol-2-yl)methylcarbamoyl]indan-2-yl]acetic acid], the inhibition at 25 µM at LasB was greater than 75%. Further, in experiment [1], the Ki is less than 50 nM.
Turning to `COc1cc(OCC[N+]2(C)CCN(C)C(=O)C2)ccc1-c1csc(CNC(=O)C2(CC(=O)[O-])Cc3ccccc3C2)n1` (stereo not shown) [Example 84, 2-[2-[[4-[4-[2-(1,4-dimethyl-3-oxo-piperazin-1-ium-1-yl)ethoxy]-2-methoxy-phenyl]thiazol-2-yl]methylcarbamoyl]indan-2-yl]acetate], at LasB, the inhibition at 25 µM lay in the range of 60 to 75%. In experiment [1], this compound showed an inhibition constant Ki of 50 to 200 nM.
In the case of `Cn1cc[n+](C)c1CCOc1ccc(-c2csc(CNC(=O)C3(CC(=O)[O-])Cc4ccccc4C3)n2)cc1` [Example 87, 2-[2-[[4-[4-[2-(1,3-dimethylimidazol-1-ium-2-yl)ethoxy]phenyl]thiazol-2-yl]methylcarbamoyl]indan-2-yl]acetate], the inhibition at 25 µM at LasB is 10 to 60%. This compound also showed a Ki in experiment [1] of 50 to 200 nM.
Taken in the same sequence, the figures for `O=C(O)CC1(C(=O)NCc2nc(-c3ccccn3)cs2)Cc2ccccc2C1` [Example 9, 2-[2-[[4-(2-pyridyl)thiazol-2-yl]methylcarbamoyl]indan-2-yl]acetic acid] were 60 to 75% and 200 to 10000 nM.
Regarding `CN1CCN(CC(=O)Nc2ccc(-c3csc(CNC(=O)C4(CC(=O)O)Cc5ccccc5C4)n3)cc2)CC1` [Example 45, 2-[2-[[4-[4-[[2-(4-methylpiperazin-1-yl)acetyl]amino]phenyl]thiazol-2-yl]methylcarbamoyl]indan-2-yl]acetic acid], at LasB, the inhibition at 25 µM lay within 60 to 75%. In experiment [1], this compound had a Ki of 50 to 200 nM.
